Results published in US20230310348A1, “USE OF ALVERINE OR ITS DERIVATIVES FOR THE TREATMENT OF MITOCHONDRIAL DISEASES OR DYSFUNCTION ASSOCIATED WITH MITOCHONDRIAL COMPLEX I DEFICIENCIES” (ASSOCIATION FRANCAISE CONTRE LES MYOPATHIES, priority 2020, published 2023).

Experiments:
[1] = test system: NARP MR14 (atp6-L183R) yeast mutant; assay: halo test on solid respiratory medium; format: cell-based; details: 100 nmoles ALV on filter, YPG, 36° C., 4-5 days
Procedure: (§1) 200 µL of the various yeast mutant strain grown in liquid YPD rich fermentable medium (1% Yeast extract, 0.5% Bacto Peptone, 2% Glucose) at 0.5 OD600 were spread on agar-based solid respiratory medium: either YPG (1% Yeast Extract, 0.5% Bacto Peptone, 2% glycerol) for fmc1, shy1 and NARP mutants or YPE (1% Yeast extract, 0.5% Bacto Peptone, 2% ethanol) for taz1 and sym1 mutants. […] The plates were then incubated at 28° C. for shy1 mutant or 36° C. for fmc1, tazl, sym1 and NARP mutants for 4-5 days and then scanned. DMSO, the compound vehicle is used as a negative control.

[2] = test system: nuo-51^A357V mutant of Podospora anserina; assay: drug drop test: restoration of thermosensitive growth (halo); format: cell-based; details: 10 mM in DMSO on 6 mm discs, 33° C., 4 to 6 days
Procedure: The mutant mycelium, scratched from a 2 days culture on M2 plates at 28° C. was mixed in a FastPrep apparatus and spread on fresh square plates. 6 mm cellulose discs are then dropped and spotted with the various compounds at 10 mM in DMSO and plates were incubated at 33° C. Within 4 to 6 days a putative resumption of growth around filters (i.e. halo) is observed.

taz1 mutant yeast strain = assay: respiratory growth in liquid medium (Bioscreen); format: cell-based; details: 70 h, liquid medium with 2% glycerol
Procedure: These assays were performed in 96-well plates in the Bioscreen device.

[3] = test system: wild-type worms (N2) subjected to NDUFS8 RNAi; assay: progeny of wild-type worms under RNAi; format: in vivo, Caenorhabditis elegans; details: ALV 1 µM
Excerpt: (§2) The C. elegans nematodes used in Examples 6 to 7 are the wild type BRISTOL N2 line from the Caenorhabditis Genetics Center (CGC) consortium. The mutant line LB25, carrying the nuo-1^A352V mutation (Δnuo-1, ex:nuo-1 (A352V)), mimicking the pathogenic mutation NDUFV1^A341V in human, was constructed by B. Lemire (Canada; Grad and Lemire, 2004).
(§3) Decreased expression of NDUFV1 or NDUFS8 in wild-type worms (N2) was achieved by RNAi with the feeding method (Kamath RS and Ahringer J., 2003). […] Individual L4 animals were then transferred to separate wells (same medium and RNAi conditions) in microplates and monitored within the 3 to 7 next days.
(§4) RNAi of NDUFV1 (CO9H10.3) and RNAi of NDUFS8 (T20H4.5) lead to few FO-adults able to give a larval progeny. The number of FO-adults able to give a larval progeny was thus monitored. The progeny of more than 30 FO-adults was recorded in three independent experiments (t-test, p=0.02). The efficiency of RNAi was determined by real-time qRT-PCR (20% remaining mRNA of NDUFV1 or NDUFS8 in the FO-adults under the RNAi conditions).

[4] = test system: wild-type worms (N2) subjected to NDUFV1 RNAi; assay: progeny of wild-type worms under RNAi; format: in vivo, Caenorhabditis elegans; details: ALV 1 µM
Excerpt: as §2, §3, §4

sym1Δ yeast strain = assay: halo test on solid respiratory medium; format: cell-based; details: 100 nmoles ALV on filter, YPE, 36° C., 4-5 days
Procedure: (§5) sym1Δ yeast strain was constructed by replacing the open reading frame of SYM1 by that of kanMX6 in the W303-1A strain (MATa ade2-1 ura3-1 his311, 15 trpl-1 leu2-3,112 can1-100). fmc1 MC6 MATa ade2-1 his3-11,15 trp1-1 leu2-3,112 ura3-1 fmcl::HIS3 [Δi ER OR] (Schwimmer, C. et al., 2005).
as §1

fmc1 yeast mutant = assay: halo test on solid respiratory medium; format: cell-based; details: 100 nmoles ALV on filter, YPG, 36° C., 4-5 days
Procedure: as §5, §1

[5] = test system: nuo-51^A357V (NDUFV1) mutant strain; assay: O2 consumption rate of mycelium (Oxytherm); format: cell-based, Podospora anserina; details: 1 µM ALV, 31.5° C., vs vehicle
Procedure: For oxygen consumption, 40 mg samples of mycelium grown at 31.5° C. are introduced in an Oxytherm apparatus (Hansatech electrode). After a 2 min registration, samples are recovered, and protein content estimated with a Bradford protein assay (Biorad). Respirations are registered as nmole of oxygen consumed/min/µg protein and then expressed relative to the wild type. At least 3 samples for each strain were examined per experiment. The experiment was repeated at least 5 times.
Experiments were done at least five times and error bars represent the standard deviation. Differences between treated vs untreated cultures (VEH) were evaluated using the Pearson’s chi-square test, with significant p values < 0.05.

NDUFV1 cell line = assay: lactate production; format: cell-based, human; details: 48 h exposure, Alv 30 nM to 10 µM
Procedure: (§6) The mutant cell lines have a preferential anaerobic glycolytic metabolism compared to control cells.
(§7) A total of 15,000 cells/well were plated in 96-well plates and grown at 37° C. in the presence of 5% CO2. […] After 48 h, supernatants were harvested and lactates were assayed using a lactate determination kit according to the manufacturer (Abcam kit ab65330). Lactate concentration was measured with a microplate spectrophotometer (CLARIOstar apparatus, BMG Labtech).

ND6 cell line = assay: lactate production; format: cell-based, human; details: 48 h exposure, concentrations above 1 µM and 3 µM
Procedure: as §6, §7

[6] = test system: control fibroblast cell line; assay: lactate production; format: cell-based, human; details: 48 h exposure, Alv 30 nM to 10 µM
Procedure: as §6, §7

[7] = test system: complex I of NDUFV1 mutant cells; assay: complex I enzyme activity of treated cells; format: cell-based, human; details: 48 hours, low glucose medium
Procedure: The complex I mutant cells, carrying the NDUFV1 compound heterozygous mutations responsible for complex I deficiency, were cultured in standard DMEM high glucose media (4.5 g/L) or in low glucose (0.5 g/L), supplemented with 10% fetal bovine serum, 1% glutamine and 50 µg/ml uridine at 37° C. in presence of 5% CO2 as described elsewhere (Leman et al., 2015). To optimize the effect of drug concentrations, cells were shifted to low glucose-medium 0.5 g/l (to force the cells to rely on OXPHOS rather than glycolysis) supplemented with various concentrations of 10 nM to 10 µM of Alverine or of the vehicle (DMSO) during 48 hours.
Complex I enzyme activity was measured at 37° C. on an UVmc2 spectrophotometer (SAFAS) as described (Leman et al., 2015; Desquiret-Dumas et al., 2012). […] The reaction was started by adding 0.15 mM NADH and the disappearing rate of DCPIP was measured at 600 nm for 2 minutes. The unspecific activity was determined in the presence of rotenone (5 µM). […]
Experiments were done at least in triplicates and error bars represent the standard deviation. Differences between treated cells vs untreated cells (DMSO) were evaluated using the Student’s t-test with significant p values <0.05.

taz1Δ yeast strain = assay: halo test on solid respiratory medium; format: cell-based; details: 100 nmoles ALV on filter, YPE, 36° C., 4-5 days
Procedure: taz1Δ yeast strain was constructed by replacing the open reading frame of TAZ1 by that of TRP1 in the W303-1A strain (MATa ade2-1 ura3-1 his311, 15 trp1-1 leu2-3,112 can1-100) (de Taffin de Tilques, M. et al., 2018).
as §1

CCN(CCCc1ccccc1)CCCc1ccccc1.O=C(O)CC(O)(CC(=O)O)C(=O)O [ALV, Alverine citrate]
growth around filter (halo test) [1]: halo of enhanced growth
thermosensitive growth of the mutant (halo around filter) [2]: rescue the growth
concentration from which toxicity has been found (taz1 mutant yeast strain): ≥ 100 µM
respiratory growth (cell density) (taz1 mutant yeast strain; ALV from 100 pM to 10 µM): increased respiratory growth
progeny (F0-adults able to give a larval progeny) [3]: increase their progeny
progeny (F0-adults able to give a larval progeny) [4]: increase their progeny
growth around filter (halo test) (sym1Δ yeast strain): halo of enhanced growth
growth around filter (halo test) (fmc1 yeast mutant): halo of enhanced growth
respiration rate (O2 consumption) [5]: significantly increased
lactate production (NDUFV1 cell line): did not alter lactate production
lactate production compared to vehicle (ND6 cell line): significantly increased
lactate production [6]: did not alter lactate production
complex I enzyme activity ([7]; 100 nM ALV): beneficial effect
complex I enzyme activity ([7]; 300 nM ALV): beneficial effect
growth around filter (halo test) (taz1Δ yeast strain): halo of enhanced growth
